From patent US20180200257A1, “METHODS FOR THE TREATMENT OF INFLAMMATORY DISORDERS” (Galapagos NV, priority 2015, published 2018)

Test system: subjects with moderately to severely active RA who have an inadequate response to methotrexate (MTX)
Assay: Study 1 (add-on to MTX) - ACR responses (ACR20/50/70)
Assay type: in vivo, human
From the text: The terms “ACR20”, “ACR50” and “ACR70” as used herein are scores which indicate how much a patient's rheumatoid arthritis has improved according to criteria set out by the American College of Rheumatology (ACR). The ACR score represents a percentage. An ACR20 score means that a person's RA has improved by 20%, an ACR50 score means it has improved by 50%, and an ACR70 score means it has improved by 70%. Specifically, to qualify for an ACR20 score, a person with RA must have at least 20% fewer tender joints and at least 20% fewer swollen joints. In addition the patient must show a 20% improvement in at least three of the following five areas: the person's overall (global) assessment of his or her own RA, the physician's global assessment of the person's RA, the person's assessment of his or her own pain, the person's assessment of his or her own physical functioning, and the results of an erythrocyte sedimentation rate or C-reactive protein (CRP) blood test (both of which test for inflammation). ACR50 and ACR70 scores use the same criteria but require 50% and 70% improvement, respectively, (Felson et al., 1993). In the data presented herein the CRP blood test is used.
Double-blind, placebo-controlled add on study in subjects with moderately to severely active RA who have an inadequate response to methotrexate (MTX) (oral or parenteral).
595 subjects randomized to one of 6 dose regimens of Compound 1 (dosed as [Compound 1:HCl:3H2O]) (3 dose levels administered either once or twice daily) or placebo on top of each subject's stable dose of MTX.
Compound 1 (dosed as [Compound 1:HCl:3H2O]) is dosed for twelve weeks once daily (q.d.) (50 mg, 100 mg or 200 mg) or twice daily (b.i.d.) (25 mg, 50 mg or 100 mg); or placebo.
At Week 12, the subjects on placebo who have not achieved 20% improvement in swollen joint count (SJC66) and tender joint count (TJC68) are re-randomized automatically to receive Compound 1 (dosed as a [Compound 1:HCl:3H2O]) either at 100 mg q.d. or 50 mg b.i.d. doses in a blinded fashion; subjects on 50 mg q.d. who have not achieved 20% improvement in SJC66 and TJC68 will be assigned to 100 mg q.d. and subjects on 25 mg b.i.d. that have not achieved a 20% improvement in SJC66 and TJC68 will be assigned to 50 mg b.i.d. Subjects who switch treatment at week 12 are handled as if they discontinued at week 12 for the purpose of statistical analysis, whereas subjects in the other groups will maintain their randomized treatment until Week 24.
The American College of Rheumatology (ACR) composite score, which evaluates clinical improvement relative to an initial assessment, is a commonly accepted efficacy end point for clinical trials in patients with rheumatoid arthritis. The ACR score correspond to a percentage improvement in pre-set parameters, and therefore measures the evolution of the disease in a patient. For example, ACR20 denotes at least 20% improvement in tender and swollen joint counts and in three of the following end points: global assessment by the patient, global assessment by the doctor, C reactive protein (CRP), patient's pain Visual Analogue Scale and Health Assessment Questionnaire Score. The number of swollen joints, ESR and CRP correlate with radiographic progression of joint damage, whereas tender joint counts, as well as global assessments by doctors and patients, and patients' reports of pain, are sensitive to change in clinical outcomes. Physical function, as assessed by the Health Assessment Questionnaire Score, is a potent predictor of the risk of disability in rheumatoid arthritis (Felson and American College of Rheumatology Committee to Reevaluate Improvement Criteria, 2007; Felson et al., 1993).
In particular, the list of parameters used to assess ACR score can be found in the Table XCVI below and the results of the ACR responses at week 12 via either NRI or LOCF are shown in the tables below. The Hommel-corrected p-value for the pairwise comparisons of each group with placebo is shown. […]

[1] = 50 mg q.d., week 2, 12 weeks results
[2] = 50 mg q.d., week 2, 24 weeks results
[3] = 50 mg q.d., week 4, 12 weeks results
[4] = 50 mg q.d., week 4, 24 weeks results
[5] = 50 mg q.d., week 12, 12 weeks results
[6] = 50 mg q.d., week 12, 24 weeks results
[7] = 50 mg q.d., week 16, 24 weeks results
[8] = 50 mg q.d., week 20, 24 weeks results
[9] = 50 mg q.d., week 24, 24 weeks results
[10] = 50 mg q.d., at week 1, 12 weeks results
[11] = 50 mg q.d., at week 1, 24 weeks results
[12] = 50 mg q.d., week 8, 12 weeks results
[13] = 50 mg q.d., week 8, 24 weeks results
[14] = 100 mg q.d., week 2, 12 weeks results
[15] = 100 mg q.d., week 2, 24 weeks results
[16] = 100 mg q.d., week 4, 12 weeks results
[17] = 100 mg q.d., week 4, 24 weeks results
[18] = 100 mg q.d., week 8, 24 weeks results
[19] = 100 mg q.d., week 12, 12 weeks results

SMILES: O=C(Nc1nc2cccc(-c3ccc(CN4CCS(=O)(=O)CC4)cc3)n2n1)C1CC1 [Compound 1, cyclopropanecarboxylic acid {5-[4-(1,1-dioxo-thiomorpholin-4-ylmethyl)-phenyl]-[1,2,4]triazolo[1,5-a]pyridin-2-yl}-amide]
- ACR20 (LOCF) [1]: 39.0%
- ACR20 (NRI) [1]: 37.8%
- ACR50 (LOCF) [1]: 7.3%
- ACR50 (NRI) [1]: 7.3%
- ACR70 (LOCF) [1]: 2.4%
- ACR70 (NRI) [1]: 2.4%
- ACR20 (LOCF) [2]: 39.0%
- ACR20 (NRI) [2]: 37.8%
- ACR50 (LOCF) [2]: 7.3%
- ACR50 (NRI) [2]: 7.3%
- ACR70 (LOCF) [2]: 2.4%
- ACR70 (NRI) [2]: 2.4%
- ACR20 (LOCF) [3]: 45.1%
- ACR20 (NRI) [3]: 42.7%
- ACR50 (LOCF) [3]: 12.2%
- ACR50 (NRI) [3]: 12.2%
- ACR70 (LOCF) [3]: 7.3%
- ACR70 (NRI) [3]: 7.3%
- ACR20 (LOCF) [4]: 45.1%
- ACR20 (NRI) [4]: 42.7%
- ACR50 (LOCF) [4]: 12.2%
- ACR50 (NRI) [4]: 12.2%
- ACR70 (LOCF) [4]: 7.3%
- ACR70 (NRI) [4]: 7.3%
- ACR20 (LOCF) [5]: 59.8%
- ACR20 (NRI) [5]: 56.1%
- ACR50 (LOCF) [5]: 31.7%
- ACR50 (NRI) [5]: 31.7%
- ACR70 (LOCF) [5]: 15.9%
- ACR70 (NRI) [5]: 15.9%
- ACR20 (LOCF) [6]: 59.8%
- ACR20 (NRI) [6]: 56.1%
- ACR50 (LOCF) [6]: 31.7%
- ACR50 (NRI) [6]: 31.7%
- ACR70 (LOCF) [6]: 15.9%
- ACR70 (NRI) [6]: 15.9%
- ACR20 (LOCF) [7]: 59.8%
- ACR20 (NRI) [7]: 56.1%
- ACR50 (LOCF) [7]: 37.8%
- ACR50 (NRI) [7]: 37.8%
- ACR70 (LOCF) [7]: 18.3%
- ACR70 (NRI) [7]: 18.3%
- ACR20 (LOCF) [8]: 61.0%
- ACR20 (NRI) [8]: 57.3%
- ACR50 (LOCF) [8]: 39.0%
- ACR70 (LOCF) [8]: 23.2%
- ACR20 (LOCF) [9]: 61.0%
- ACR20 (NRI) [9]: 54.9%
- ACR50 (LOCF) [9]: 36.6%
- ACR70 (LOCF) [9]: 22.0%
- ACR20 (LOCF) [10]: 22.0%
- ACR20 (NRI) [10]: 22.0%
- ACR50 (LOCF) [10]: 2.4%
- ACR50 (NRI) [10]: 2.4%
- ACR70 (LOCF) [10]: 0.0%
- ACR70 (NRI) [10]: 0.0%
- ACR20 (LOCF) [11]: 22.0%
- ACR20 (NRI) [11]: 22.0%
- ACR50 (LOCF) [11]: 2.4%
- ACR50 (NRI) [11]: 2.4%
- ACR70 (LOCF) [11]: 0.0%
- ACR70 (NRI) [11]: 0.0%
- ACR20 (LOCF) [12]: 57.3%
- ACR20 (NRI) [12]: 54.9%
- ACR50 (LOCF) [12]: 25.6%
- ACR50 (NRI) [12]: 26.8%
- ACR70 (LOCF) [12]: 11.0%
- ACR70 (NRI) [12]: 11.0%
- ACR20 (LOCF) [13]: 57.3%
- ACR20 (NRI) [13]: 54.9%
- ACR50 (LOCF) [13]: 26.8%
- ACR50 (NRI) [13]: 26.8%
- ACR70 (LOCF) [13]: 11.0%
- ACR70 (NRI) [13]: 11.0%
- ACR20 (LOCF) [14]: 45.9%
- ACR20 (NRI) [14]: 47.1%
- ACR50 (LOCF) [14]: 20.0%
- ACR50 (NRI) [14]: 20.0%
- ACR70 (LOCF) [14]: 7.1%
- ACR70 (NRI) [14]: 7.1%
- ACR20 (LOCF) [15]: 48.2%
- ACR20 (NRI) [15]: 47.1%
- ACR50 (LOCF) [15]: 20.0%
- ACR50 (NRI) [15]: 20.0%
- ACR70 (LOCF) [15]: 7.1%
- ACR70 (NRI) [15]: 7.1%
- ACR20 (LOCF) [16]: 48.2%
- ACR20 (NRI) [16]: 50.6%
- ACR50 (LOCF) [16]: 32.9%
- ACR50 (NRI) [16]: 32.9%
- ACR70 (LOCF) [16]: 15.3%
- ACR70 (NRI) [16]: 15.3%
- ACR20 (LOCF) [17]: 51.8%
- ACR20 (NRI) [17]: 51.8%
- ACR50 (LOCF) [17]: 32.9%
- ACR50 (NRI) [17]: 32.9%
- ACR70 (LOCF) [17]: 15.3%
- ACR70 (NRI) [17]: 15.3%
- ACR20 (LOCF) [18]: 64.7%
- ACR20 (NRI) [18]: 64.7%
- ACR50 (LOCF) [18]: 35.3%
- ACR50 (NRI) [18]: 35.3%
- ACR70 (LOCF) [18]: 23.5%
- ACR70 (NRI) [18]: 23.5%
- ACR20 (LOCF) [19]: 63.5%
- ACR20 (NRI) [19]: 62.4%
- ACR50 (LOCF) [19]: 38.8%
- ACR50 (NRI) [19]: 38.8%
